Measured values from ChEMBL document CHEMBL5370591, “A Potent and Narrow-Spectrum Antibacterial against Clostridioides difficile Infection” (J Med Chem, 2023).
≈ marks a conversion by molar mass, not a printed value.

Columns and labels:
[1] = Selectivity ratio of IC50 for human THP-1 cells to MIC for Clostridium difficile ATCC 43255; format: toxicity
[2] = tested on: Clostridioides difficile; assay: Antibacterial activity against Clostridium difficile ATCC 43255 measured after 48 hrs by two fold serial dilution method; format: functional
[3] = tested on: THP-1; assay: Cytotoxicity against human THP-1 cells assessed as increase in LDH release incubate for 24 hrs by trypan-blue staining based analysis; format: functional, cell-based; conditions: THP-1, 24 h
[4] = Selectivity ratio of IC50 for human HepG2 cells to MIC for Clostridium difficile ATCC 43255; format: toxicity
[5] = tested on: HepG2; assay: Antiproliferative activity against human HepG2 cells assessed as inhibition of cell growth by XTT assay; format: functional, cell-based
[6] = tested on: Bacteroides fragilis; assay: Antibacterial activity against Bacteroides fragilis HM-709 assessed as inhibition of bacterial growth by broth microdilution method; format: functional
[7] = tested on: Escherichia coli; assay: Antibacterial activity against Escherichia coli ATCC25922 assessed as inhibition of bacterial growth by broth microdilution method; format: functional
[8] = tested on: Lactobacillus gasseri; assay: Antibacterial activity against Lactobacillus gasseri HM-644 assessed as inhibition of bacterial growth by broth microdilution method; format: functional
[9] = tested on: Clostridioides difficile; assay: Antibacterial activity against Clostridium difficile BAA-1803 assessed as inhibition of bacterial growth by broth microdilution method; format: functional
[10] = tested on: Streptococcus oralis; assay: Antibacterial activity against Streptococcus oralis ATCC 9811 assessed as inhibition of bacterial growth by broth microdilution method; format: functional
[11] = tested on: Klebsiella aerogenes; assay: Antibacterial activity against Klebsiella aerogenes ATCC35029 assessed as inhibition of bacterial growth by broth microdilution method; format: functional
[12] = tested on: Limosilactobacillus reuteri; assay: Antibacterial activity against Lactobacillus reuteri HM-102 assessed as inhibition of bacterial growth by broth microdilution method; format: functional
[13] = tested on: Pseudomonas aeruginosa; assay: Antibacterial activity against Pseudomonas aeruginosa ATCC27853 assessed as inhibition of bacterial growth by broth microdilution method; format: functional
[14] = tested on: Clostridioides difficile; assay: Antibacterial activity against Clostridium difficile NR49310 assessed as inhibition of bacterial growth by broth microdilution method; format: functional
[15] = tested on: Enterococcus faecium; assay: Antibacterial activity against vancomycin susceptible Enterococcus faecium119-39A assessed as inhibition of bacterial growth by broth microdilution method; format: functional; conditions: 119-39A
[16] = tested on: Clostridioides difficile; assay: Antibacterial activity against Clostridium difficile NR49302 assessed as inhibition of bacterial growth by broth microdilution method; format: functional
[17] = tested on: Eubacterium sp.; assay: Antibacterial activity against Eubacterium sp. HM-178 assessed as inhibition of bacterial growth by broth microdilution method; format: functional
[18] = tested on: Clostridioides difficile; assay: Antibacterial activity against Clostridium difficile ATCC 43255 assessed as inhibition of bacterial growth by broth microdilution method; format: functional
[19] = tested on: Staphylococcus haemolyticus; assay: Antibacterial activity against Staphylococcus haemolyticus ATCC 29970 assessed as inhibition of bacterial growth by broth microdilution method; format: functional
[20] = tested on: Fusobacterium nucleatum; assay: Antibacterial activity against Fusobacterium nucleatum HM-992 assessed as inhibition of bacterial growth by broth microdilution method; format: functional
[21] = tested on: Staphylococcus aureus; assay: Antibacterial activity against vancomycin-resistant Staphylococcus aureus clinical isolate 1 assessed as inhibition of bacterial growth by broth microdilution method; format: functional
[22] = tested on: Corynebacterium sp.; assay: Antibacterial activity against Corynebacterium sp. HM-784 assessed as inhibition of bacterial growth by broth microdilution method; format: functional
[23] = tested on: Veillonella; assay: Antibacterial activity against Veillonella HM-49 assessed as inhibition of bacterial growth by broth microdilution method; format: functional
[24] = tested on: Clostridioides difficile; assay: Antibacterial activity against Clostridium difficile NR49292 assessed as inhibition of bacterial growth by broth microdilution method; format: functional
[25] = tested on: Clostridioides difficile; assay: Antibacterial activity against Clostridium difficile NR49305 assessed as inhibition of bacterial growth by broth microdilution method; format: functional
[26] = tested on: Clostridioides difficile; assay: Antibacterial activity against Clostridium difficile NR49294 assessed as inhibition of bacterial growth by broth microdilution method; format: functional
[27] = tested on: Enterococcus faecium; assay: Antibacterial activity against vancomycin resistant Enterococcus faecium 106 assessed as inhibition of bacterial growth by broth microdilution method; format: functional
[28] = tested on: Clostridioides difficile; assay: Antibacterial activity against Clostridium difficile 26675 assessed as inhibition of bacterial growth by broth microdilution method; format: functional
[29] = tested on: Bifidobacterium longum; assay: Antibacterial activity against Bifidobacterium longum HM-846 assessed as inhibition of bacterial growth by broth microdilution method; format: functional
[30] = tested on: Clostridioides difficile; assay: Antibacterial activity against Clostridium difficile NR49318 assessed as inhibition of bacterial growth by broth microdilution method; format: functional
[31] = tested on: Klebsiella pneumoniae; assay: Antibacterial activity against Klebsiella pneumoniae ATCC700603 assessed as inhibition of bacterial growth by broth microdilution method; format: functional
[32] = tested on: Clostridioides difficile; assay: Antibacterial activity against Clostridium difficile 23828 assessed as inhibition of bacterial growth by broth microdilution method; format: functional
[33] = tested on: Acinetobacter baumannii; assay: Antibacterial activity against Acinetobacter baumannii ATCC17961 assessed as inhibition of bacterial growth by broth microdilution method; format: functional
[34] = tested on: Clostridioides difficile; assay: Antibacterial activity against Clostridium difficile 24531 assessed as inhibition of bacterial growth by broth microdilution method; format: functional
[35] = tested on: Clostridioides difficile; assay: Antibacterial activity against Clostridium difficile BAA-1870 assessed as inhibition of bacterial growth by broth microdilution method; format: functional

## O=[N+]([O-])c1c[nH]nc1-c1nc(-c2ccc3oc4ccccc4c3c2)no1
[1]
  selectivity ratio: 2
[2]
  MIC: 4 µg/mL (≈ 11.5 µM)

## O=[N+]([O-])c1c[nH]c(-c2nc(-c3ccc(OC4CCC4)cc3)no2)n1
[1]
  selectivity ratio: > 512
[3]
  IC50: > 128 µg/mL
[4]
  selectivity ratio: 168
[2]
  MIC: 0.25 µg/mL (≈ 0.764 µM)
[5]
  IC50: 41.9 µg/mL (≈ 128 µM)

## Oc1ccc(-c2nc(-c3ccc(Oc4ccc(C(F)(F)F)cc4)cc3)no2)cc1F
[1]
  selectivity ratio: 1
[3]
  IC50: 5.2 µg/mL (≈ 12.5 µM)
[2]
  MIC: 4 µg/mL (≈ 9.61 µM)

## Oc1c(F)cc(-c2nc(-c3ccc(Oc4ccc(C(F)(F)F)cc4)cc3)no2)cc1F
[1]
  selectivity ratio: 4
[3]
  IC50: 18 µg/mL (≈ 41.4 µM)

## CCc1c(Cl)c(O)c(Cl)c(O)c1C(=O)O[C@H]1[C@H](O)[C@H](OC)[C@H](OC/C2=C\C=C\C[C@H](O)/C(C)=C/[C@H](CC)[C@@H](O[C@@H]3OC(C)(C)[C@@H](OC(=O)C(C)C)[C@H](O)[C@@H]3O)/C(C)=C/C(C)=C/C[C@@H]([C@@H](C)O)OC2=O)O[C@@H]1C [FIDAXOMICIN]
[6]
  MIC: > 32 µg/mL
[7]
  MIC: > 128 µg/mL
[8]
  MIC: 2 µg/mL (≈ 1.89 µM)
[9]
  MIC: 1 µg/mL (≈ 0.945 µM)
[10]
  MIC: 32 µg/mL (≈ 30.2 µM)
[11]
  MIC: > 128 µg/mL
[12]
  MIC: > 32 µg/mL
[13]
  MIC: > 128 µg/mL
[14]
  MIC: ≤ 0.01 µg/mL
[15]
  MIC: > 16 µg/mL
[16]
  MIC: 0.03 µg/mL (≈ 0.0284 µM)
[17]
  MIC: 16 µg/mL (≈ 15.1 µM)
[18]
  MIC: 0.06 µg/mL (≈ 0.0567 µM)
[19]
  MIC: 16 µg/mL (≈ 15.1 µM)
[20]
  MIC: < 0.06 µg/mL
[21]
  MIC: 64 µg/mL (≈ 60.5 µM)
[22]
  MIC: < 0.06 µg/mL
[23]
  MIC: 8 µg/mL (≈ 7.56 µM)
[24]
  MIC: 0.5 µg/mL (≈ 0.473 µM)
[25]
  MIC: 0.01 µg/mL (≈ 0.00945 µM)
[26]
  MIC: 0.01 µg/mL (≈ 0.00945 µM)
[27]
  MIC: > 16 µg/mL
[28]
  MIC: 4 µg/mL (≈ 3.78 µM)
[29]
  MIC: < 0.01 µg/mL
[30]
  MIC: 0.125 µg/mL (≈ 0.118 µM)
[31]
  MIC: > 128 µg/mL
[32]
  MIC: > 8 µg/mL
[33]
  MIC: > 128 µg/mL
[34]
  MIC: 0.01 µg/mL (≈ 0.00945 µM)
[35]
  MIC: 0.25 µg/mL (≈ 0.236 µM)

## O=[N+]([O-])c1c[nH]nc1-c1nc(-c2ccc(Oc3ccc(I)cc3)cc2)no1
[1]
  selectivity ratio: 25
[3]
  IC50: 100 µg/mL (≈ 210 µM)
[2]
  MIC: 4 µg/mL (≈ 8.42 µM)

## Oc1ccc(-c2noc(-c3ccc(OC4CCCC4)cc3)n2)cc1
[1]
  selectivity ratio: 2
[3]
  IC50: 8.5 µg/mL (≈ 26.4 µM)
[2]
  MIC: 4 µg/mL (≈ 12.4 µM)
